Like-named read-outs stand apart in the source and are kept apart here. One block for each compound: values may come before it.
Tests used:
Abcg4 [1] = biological target: T1, Abcg4 (Mus musculus, UniProt Q91WA9); assay: Abcg4-mediated Aβ transport/efflux in HEK-Abcg4 transfected cells; assay type: cell-based; conditions: data not shown
From the text: Abcg4 monomers come together to form a homodimer that includes nearly identical binding clefts which are opposite one another on the dimer surface. The homology model is an approximation of the dimer structure frozen in time which fails to capture the dynamic nature of protein motions. In vivo it is likely that nucleotide binding changes the overall configuration of the dimer to allow for sterol binding on one side of the complex followed by translocation of sterol to the dimer core before being exported from the membrane. One consequence of this movement could be that only one sterol-binding site exists at a given time. Thus, sterol binding would alternate from one binding site to the other as sterols are translocated. This mechanism could explain why the homology model has a single sterol-binding site despite the presence of two nearly identical binding clefts. […] Abcg4 seems to have two Aβ binding sites which agrees with our previous data that percent efflux of Aβ was greater than cholesterol[18] and with our current data that desmosterol competes with Aβ efflux. Furthermore, we previously measured, in HEK-Abcg4 transfected cells, the velocity of Aβ transport by Abcg4 as a function of [^3H]Aβ1-40 concentrations. […]

Abcg4 [2] = biological target: T1, Abcg4; assay: In situ brain perfusion (ISBP): brain uptake clearance of tritiated tracers at the luminal BBB, WT and Abcg4-KO mice; conditions: WT mice, 60 s perfusion
Description: (§1) The function of Abcg4 at the mouse BBB was evaluated by using the in situ brain perfusion (ISBP) technique. This method was developed to study drug transport processes occurring at the luminal side of the BCECs[40],[41] and can be used to measure transport parameters, including the brain volume of distribution and the brain uptake clearance (Clup) of a target molecule over very short periods (30–120 s). The resulting Clup integrates the effect of enhancing or limiting factors introduced by the transporters located at the luminal side of BCECs. This method allows for measurement of the initial brain uptake of molecules, which results from both the influx and the efflux mechanisms involved in their transport. One of the advantages of this technique is the ability to administer inhibitors, or to use transporter deficient mice, in order to modulate function at the luminal side of the BBB.
(§2) Mice were anesthetized by intra-peritoneal injection of a mixture of ketamine and xylazine at 140:8 mg/kg. The right common carotid artery was ligated on the heart side and the right external carotid artery was ligated at the level of the bifurcation. A catheter was inserted into the right common carotid artery. The perfusion liquid was contained in a syringe placed in an infusion pump and connected to the catheter. Before the perfusion, the thorax of the animal was opened, the heart was removed and perfusion started immediately at flow of 2.5 mL/min. The perfusion fluid was Krebs bicarbonate-buffered physiological saline (128 mM NaCl, 24 mM NaHCO3, 4.2 mM KCl, 2.4 NaH2PO4, 1.5 mM CaCl2, 0.9 mM MgCl2 and 9 mM D-glucose).The solution was gassed with 95% O2−5% CO2 to bring the pH to 7.40 and warmed to 37 °C in water bath. Each mouse was perfused for 60 s with [^3H]Aβ1–40 (0.2 µCi/mL) or [^3H]desmosterol (0.2 µCi/mL). [^14C]sucrose was used as a vascular marker of the physical integrity of the BBB and co-perfused with the tritiated substrate. The brain uptake of tritiated tracers was also measured in the presence of unlabeled substrates [probucol 10 µM, desmosterol 20 µM orT4 10 µM], dissolved in their respective vehicles [DMSO ( < 0.5% in final perfusion fluid) or H2O/NaOH]. The experiment was terminated by decapitating the mouse. The right cerebral hemisphere and aliquots of the perfusion fluid were sampled in tared vials, weighted, digested in 2 mL of Solvable® solubilizer (PerkinElmer, Courtaboeuf, France) at 50 °C and mixed with 9 mL of Ultima Gold XR® scintillation cocktail (PerkinElmer). Labeled compounds were counted on a Tri-Carb® (PerkinElmer) counter with the appropriate dual (^14C/^3H) quenching curves and standards to measure disintegration per minute (dpm) in samples.
(§3) The brain uptake clearance (Clup, µL/g) is the ratio between the apparent tissue distribution volume (Vbrain, µL/g) of [^3H]Aβ1–40 or [^3H]desmosterol and the perfusion time (s). The Vbrain was calculated from the amount of radioactivity in the right brain hemisphere using the following equation: Vbrain=Xbrain/Cperf where Xbrain (dpm/g) is the calculated amount of tritiated tracer in the right cerebral parenchyma and Cperf (dpm/µL) is the concentration of tritiated tracer in the perfusion fluid. Xbrain is obtained by this equation: Xbrain=Xtot−(Vvasc×Cperf) where Xtot (dpm/g) is the total amount of tritiated tracer measured in the brain tissue sample (vascular and extravascular).

Abcg4 [3] = assay: as above
Description: as §1, §2, §3

Abcg4 [4] = biological target: T1, Abcg4; parameters: Wild-type C57BL/6 and Abcg4-KO mice had free access to standard laboratory food and water; from tissue; host or cells: brain capillary endothelial cells of living C57BL/6 mice (in situ brain perfusion); conditions: HEK-Abcg4 transfected cells; cited from earlier work
From the text: We had shown previously that a probucol- and T4-sensitive transporter, different from Abca1, Abcb1 and Abcg2, restricted the brain entry of [^3H]Aβ1-40 through the mouse BBB[18],[43].

Abcb1 and Abcg2 = conditions: brain efflux index (BEI) method; cited from earlier work
[5] = mouse, in vivo
Description: Mice were anesthetized by intra-peritoneal injection of a mixture of ketamine and xylazine at 140:8 mg/kg. The right common carotid artery was ligated on the heart side and the right external carotid artery was ligated at the level of the bifurcation. A catheter was inserted into the right common carotid artery. The perfusion liquid was contained in a syringe placed in an infusion pump and connected to the catheter. Before the perfusion, the thorax of the animal was opened, the heart was removed and perfusion started immediately at flow of 2.5 mL/min. […] The brain uptake of tritiated tracers was also measured in the presence of unlabeled substrates [probucol 10 µM, desmosterol 20 µM orT4 10 µM], dissolved in their respective vehicles [DMSO ( < 0.5% in final perfusion fluid) or H2O/NaOH]. […] Labeled compounds were counted on a Tri-Carb® (PerkinElmer) counter with the appropriate dual (^14C/^3H) quenching curves and standards to measure disintegration per minute (dpm) in samples.
The brain uptake clearance (Clup, µL/g) is the ratio between the apparent tissue distribution volume (Vbrain, µL/g) of [^3H]Aβ1–40 or [^3H]desmosterol and the perfusion time (s). […] Xbrain is obtained by this equation: Xbrain=Xtot−(Vvasc×Cperf) where Xtot (dpm/g) is the total amount of tritiated tracer measured in the brain tissue sample (vascular and extravascular).

Abcg4 [6] = conditions: mouse, in vivo
Description: as §1, §2, §3

Abcb1 = system: Abcb1; parameters: method as in PMID 11181832; conditions: read-out: Km of Aβ reported for Abcb1; cited from earlier work
[7] = T4 10 µM in perfusion buffer, means of 5–8 mice
[8] = Abcg4-KO mice, T4 10 µM, 60 s perfusion, 5–8 mice
[9] = Abcg4-KO mice, probucol 10 µM, 60 s perfusion, 8–9 mice

T1 sequence (Q91WA9 whole entry): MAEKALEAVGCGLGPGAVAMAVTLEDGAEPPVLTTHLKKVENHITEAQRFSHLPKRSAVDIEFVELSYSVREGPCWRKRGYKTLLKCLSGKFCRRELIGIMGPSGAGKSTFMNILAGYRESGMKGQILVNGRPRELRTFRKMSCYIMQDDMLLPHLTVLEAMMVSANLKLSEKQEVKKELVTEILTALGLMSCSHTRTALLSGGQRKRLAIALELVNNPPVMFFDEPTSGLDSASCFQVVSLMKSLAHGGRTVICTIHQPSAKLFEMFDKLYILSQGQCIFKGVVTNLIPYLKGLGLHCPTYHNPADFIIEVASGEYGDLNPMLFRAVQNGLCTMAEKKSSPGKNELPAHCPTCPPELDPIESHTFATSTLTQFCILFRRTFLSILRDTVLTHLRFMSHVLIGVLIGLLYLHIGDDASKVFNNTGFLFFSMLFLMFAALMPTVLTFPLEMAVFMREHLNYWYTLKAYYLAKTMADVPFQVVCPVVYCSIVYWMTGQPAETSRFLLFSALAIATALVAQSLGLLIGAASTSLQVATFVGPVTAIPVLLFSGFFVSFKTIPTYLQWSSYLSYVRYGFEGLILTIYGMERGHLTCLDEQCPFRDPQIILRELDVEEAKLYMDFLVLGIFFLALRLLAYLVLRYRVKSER

Inhibition of Abcg4-mediated Aβ efflux (Abcg4 [1]): 5.8 fold
Increase of [3H]Aβ1–40 Clup in the presence vs absence of T4 (ER T4/ctrl) (Abcg4 [2]; [7]): 2 fold
Increase of [3H]desmosterol Clup in the presence vs absence of T4 (ER T4/ctrl) (Abcg4 [2]; [7]): 1.8 fold
Compound: N[C@@H](Cc1cc(I)c(Oc2cc(I)c(O)c(I)c2)c(I)c1)C(=O)O [T4, L-thyroxine]
Effect of T4 on [3H]Aβ1–40 Clup (Abcg4 [3]; [8]): this effect was lost
Effect of T4 on [3H]desmosterol Clup (Abcg4 [3]; [8]): this effect was lost

Compound: CC(C)=CCC[C@@H](C)[C@H]1CC[C@H]2[C@@H]3CC=C4C[C@@H](O)CC[C@]4(C)[C@H]3CC[C@]12C [desmosterol]
Increase of [3H]Aβ1-40 Clup in the presence vs absence of desmosterol (ER desmosterol/ctrl) (Abcg4 [2]; desmosterol 20 µM in perfusion buffer, means of 5–7 mice): 1.8 fold
Effect of desmosterol on [3H]Aβ1-40 Clup (Abcg4 [3]; Abcg4-KO mice, desmosterol 20 µM, 60 s perfusion, 5–7 mice): no significant effect
Time course of brain volume of distribution (Vbrain) as a function of perfusion time (Abcg4 [3]; WT C57BL/6 mice, right hemisphere, in situ brain perfusion, 3 animals per data point, r2 = 0.944): linear increase
Brain uptake clearance (Clup) in Abcg4-KO mice compared with WT mice (Abcg4 [3]; in situ brain perfusion, 60 s, tracer 0.2 µCi/mL, absence of probucol, 8–9 mice, two-way ANOVA, Bonferroni): not significantly different

Increase of [3H]desmosterol Clup in the presence vs absence of probucol (ER probucol/ctrl) (Abcg4 [2]; probucol 10 µM in perfusion fluid, [3H]desmosterol 0.2 µCi/mL, Krebs bicarbonate pH 7.40, 37 °C, means of 8–9 mice): 1.8 fold
Increase of [3H]Aβ1–40 Clup in the presence vs absence of probucol (ER probucol/ctrl) (Abcg4 [2]; probucol 10 µM, [3H]Aβ1–40 0.2 µCi/mL, pH 7.40, 37 °C, means of 8–9 mice): 2.1 fold
Compound: CC(C)(Sc1cc(C(C)(C)C)c(O)c(C(C)(C)C)c1)Sc1cc(C(C)(C)C)c(O)c(C(C)(C)C)c1 [probucol]
Effect of probucol on [3H]Aβ1–40 Clup (Abcg4 [3]; [9]): this effect was lost
Effect of probucol on [3H]desmosterol Clup (Abcg4 [3]; [9]): this effect was lost
Inhibition of Abcg4-mediated Aβ efflux (Abcg4 [4]): 2 fold

Compound: CNC(=O)c1cc(Oc2ccc(NC(=O)Nc3ccc(Cl)c(C(F)(F)F)c3)cc2)ccn1 [sorafenib]
Brain clearance in Mdr1a/b−/− mice compared with WT mice (Abcb1 and Abcg2): the same
Decrease of brain clearance in Abcb1/Abcg2-deficient mice (Abcb1 and Abcg2): 2.5 fold
Decrease of brain clearance in Abcg2-deficient mice (Abcb1 and Abcg2): 2 fold

Brain vascular volume (Vvasc), distribution volume of [14C]sucrose [5]: under 20 µL/g
Compound: OC[C@H]1O[C@@](CO)(O[C@H]2O[C@H](CO)[C@@H](O)[C@H](O)[C@H]2O)[C@@H](O)[C@@H]1O [sucrose]

Compound: Aβ1–40: amyloid-β peptide, 40 amino-acid form, used tritiated as transport tracer
Brain uptake clearance (Clup) in Abcg4-KO mice compared with WT mice (Abcg4 [6]): not significantly different
Km (Abcb1): 12.5 µM

Source: article PMC5645361, “Expression and function of Abcg4 in the mouse blood-brain barrier: role in restricting the brain entry of amyloid-β peptide” (Scientific Reports, 2017)
